The target in this assay is T1, human M4 muscarinic acetylcholine receptor (Homo sapiens, UniProt P08173).
T1 construct: expressed in transfected cells; host or cells: CHO-K1
T1 sequence (P08173 1-479): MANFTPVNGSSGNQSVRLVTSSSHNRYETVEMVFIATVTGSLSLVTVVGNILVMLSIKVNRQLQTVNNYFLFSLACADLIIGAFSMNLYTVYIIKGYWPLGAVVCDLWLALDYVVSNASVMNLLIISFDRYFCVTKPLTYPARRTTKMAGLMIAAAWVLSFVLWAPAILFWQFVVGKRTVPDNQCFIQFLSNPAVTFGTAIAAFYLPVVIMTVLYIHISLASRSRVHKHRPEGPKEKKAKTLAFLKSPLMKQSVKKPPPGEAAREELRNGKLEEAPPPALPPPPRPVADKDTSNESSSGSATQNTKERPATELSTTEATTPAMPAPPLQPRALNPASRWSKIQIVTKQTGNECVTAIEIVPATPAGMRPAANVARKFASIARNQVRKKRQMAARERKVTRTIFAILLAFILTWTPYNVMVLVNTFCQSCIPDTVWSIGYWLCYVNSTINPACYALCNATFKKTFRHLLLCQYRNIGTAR
The assay can be described thus: human FLIPR-based M4 PAM assay, CHO-K1 cells stably transfected with human M4 receptor and chimeric G-protein Gαqi5. The assay is classed as cell-based. As to conditions: inflection point (IP) of dose response curve; acetylcholine added at 20% of maximum response; CHO-K1 human M4/Gαqi5, FLIPR Tetra. Summed up:
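CHO-K1 cells were loaded with calcium dye at 37 °C for ~1 h. Fluorescence (ex 470–495/em 515–575 nm) was read for 4 min after test compound at increasing concentrations, then 3.5 min after acetylcholine at an EC20; sometimes a third addition at EC70 followed. The value is the inflection point of a 4-parameter logistic fit.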

Take `COc1ccc(OC2CCN(c3nnc(C(=O)NCc4ccc(C#N)cc4)cc3C)CC2)cn1` [Example 171, N-(4-cyanobenzyl)-6-{4-[(6-methoxypyridin-3-yl)oxy]piperidin-1-yl}-5-methylpyridazine-3-carboxamide]: the EC50 worked out at 471 nM.

As to `Cc1cc(C(=O)NC2CCc3cnccc3C2)nnc1N1CCC(Oc2cccc(C#N)c2)CC1` (stereo not drawn) [Example 172, 6-[4-(3-cyanophenoxy)piperidin-1-yl]-5-methyl-N-(5,6,7,8-tetrahydroisoquinolin-6-yl)pyridazine-3-carboxamide], the EC50 came to 508 nM. This EC50 and that of the compound before are within 1.5-fold of each other.

The compound `COc1ccc(OC2CCN(c3nnc(C(=O)N[C@H]4CCc5ccccc54)cc3C)CC2)cn1` [Example 173, N-[(1S)-2,3-dihydro-1H-inden-1-yl]-6-{4-[(6-methoxypyridin-3-yl)oxy]piperidin-1-yl}-5-methylpyridazine-3-carboxamide] displayed an EC50 of 552 nM.

As to `COc1ccc(OC2CCN(c3nnc(C(=O)NCc4ccc(S(C)(=O)=O)cc4)cc3C)CC2)cn1` [Example 174, 6-{4-[(6-methoxypyridin-3-yl)oxy]piperidin-1-yl}-5-methyl-N-[4-(methylsulfonyl)benzyl]pyridazine-3-carboxamide], the concentration for a half-maximal effect (EC50) was 563 nM.

`COc1ccc(OC2CCN(c3nnc(C(=O)NCc4ccc5c(c4)CNC5=O)cc3C)CC2)cn1` [Example 175, 6-{4-[(6-methoxypyridin-3-yl)oxy]piperidin-1-yl}-5-methyl-N-[(1-oxo-2,3-dihydro-1H-isoindol-5-yl)methyl]pyridazine-3-carboxamide] displayed an EC50 of 573 nM.

With `COc1ccc(OC2CCN(c3nnc(C(=O)NCc4ccc5c(c4)CCO5)cc3C)CC2)cn1` [Example 176, N-(2,3-dihydro-1-benzofuran-5-ylmethyl)-6-{4-[(6-methoxypyridin-3-yl)oxy]piperidin-1-yl}-5-methylpyridazine-3-carboxamide], the EC50 amounted to 629 nM.

In turn, `COc1ccc(OC2CCN(c3nnc(C(=O)NC4Cc5ccccc5C4)cc3C)CC2)cn1` [Example 177, N-(2,3-dihydro-1H-inden-2-yl)-6-{4-[(6-methoxypyridin-3-yl)oxy]piperidin-1-yl}-5-methylpyridazine-3-carboxamide] displayed a concentration giving a half-maximal response (EC50) of 693 nM. This EC50 and that of the compound before are within 1.5-fold of each other.

In turn, `COc1ccc(OC2CCN(c3nnc(C(=O)NCc4ccccc4C#N)cc3C)CC2)cn1` [Example 178, N-(2-cyanobenzyl)-6-{4-[(6-methoxypyridin-3-yl)oxy]piperidin-1-yl}-5-methylpyridazine-3-carboxamide] returned a concentration for a half-maximal effect (EC50) of 724 nM.

`COc1ccc(OC2CCN(c3nnc(C(=O)N[C@@H]4CCc5ccccc54)cc3C)CC2)cn1` [Example 179, N-[(1R)-2,3-dihydro-1H-inden-1-yl]-6-{4-[(6-methoxypyridin-3-yl)oxy]piperidin-1-yl}-5-methylpyridazine-3-carboxamide] displayed an EC50 of 793 nM.

As to `COc1ccc(OC2CCN(c3nnc(C(=O)NC4CCNC4=O)cc3C)CC2)cn1` (stereo not drawn) [Example 180, 6-{4-[(6-methoxypyridin-3-yl)oxy]piperidin-1-yl}-5-methyl-N-(2-oxopyrrolidin-3-yl)pyridazine-3-carboxamide], the 50% effective concentration (EC50) was 808 nM. The EC50 values of the last two compounds are within 1.5-fold of each other.

On to `COc1ccc(OC2CCN(c3nnc(C(=O)NCc4cc(F)c(OC)c(F)c4)cc3C)CC2)cn1` [Example 181, N-(3,5-difluoro-4-methoxybenzyl)-6-{4-[(6-methoxypyridin-3-yl)oxy]piperidin-1-yl}-5-methylpyridazine-3-carboxamide], for which the EC50 came to 871 nM.

Compound `COc1ccc([C@H](C)NC(=O)c2cc(C)c(N3CCC(Oc4ccc(OC)nc4)CC3)nn2)cc1` [Example 182, N-[(1S)-1-(4-methoxyphenyl)ethyl]-6-{4-[(6-methoxypyridin-3-yl)oxy]piperidin-1-yl}-5-methylpyridazine-3-carboxamide] displayed an EC50 of 893 nM.

`COc1ccc(OC2CCN(c3nnc(C(=O)NCc4ccc(F)cc4Cl)cc3C)CC2)cn1` [Example 183, N-(2-chloro-4-fluorobenzyl)-6-{4-[(6-methoxypyridin-3-yl)oxy]piperidin-1-yl}-5-methylpyridazine-3-carboxamide] came in with a 50% effective concentration (EC50) of 915 nM.

With `COc1ccc(OC2CCN(c3nnc(C(=O)N[C@H]4CCc5cc(F)ccc5C4)cc3C)CC2)cn1` [Example 184A, (S)-N-(6-fluoro-1,2,3,4-tetrahydronaphthalen-2-yl)-6-{4-[(6-methoxypyridin-3-yl)oxy]piperidin-1-yl}-5-methylpyridazine-3-carboxamide], it took 427 nM to reach a half-maximal effect (EC50). This EC50 is about 2.1-fold lower than that of the compound before.

For the compound `COc1ccc(OC2CCN(c3nnc(C(=O)N[C@@H]4CCc5cc(F)ccc5C4)cc3C)CC2)cn1` [Example 184B, (R)-N-(6-fluoro-1,2,3,4-tetrahydronaphthalen-2-yl)-6-{4-[(6-methoxypyridin-3-yl)oxy]piperidin-1-yl}-5-methylpyridazine-3-carboxamide], the 50% effective concentration (EC50) came out at 1010 nM. Against the preceding compound, the EC50 is about 2.4-fold higher.

Regarding `COc1ccc(OC2CCN(c3nnc(C(=O)NC4(C)CCCC4)cc3C)CC2)cn1` [Example 185, 6-{4-[(6-methoxypyridin-3-yl)oxy]piperidin-1-yl}-5-methyl-N-(1-methylcyclopentyl)pyridazine-3-carboxamide], the midpoint of the response, the EC50, lay at 1040 nM.

`COc1ccc(OC2CCN(c3nnc(C(=O)NCc4ccc(OC)c(C(F)(F)F)c4)cc3C)CC2)cn1` [Example 186, 6-{4-[(6-methoxypyridin-3-yl)oxy]piperidin-1-yl}-N-[4-methoxy-3-(trifluoromethyl)benzyl]-5-methylpyridazine-3-carboxamide] had an EC50 of 1250 nM. This EC50 and that of the compound before are within 1.5-fold of each other.

`COc1ccc(OC2CCN(c3nnc(C(=O)N[C@@H]4CCCc5ccccc54)cc3C)CC2)cn1` [Example 187, 6-{4-[(6-methoxypyridin-3-yl)oxy]piperidin-1-yl}-5-methyl-N-[(1R)-1,2,3,4-tetrahydronaphthalen-1-yl]pyridazine-3-carboxamide]: it took 1330 nM to reach a half-maximal effect (EC50).

In turn, `COc1ccc([C@@H](C)NC(=O)c2cc(C)c(N3CCC(Oc4ccc(OC)nc4)CC3)nn2)cc1` [Example 188, N-[(1R)-1-(4-methoxyphenyl)ethyl]-6-{4-[(6-methoxypyridin-3-yl)oxy]piperidin-1-yl}-5-methylpyridazine-3-carboxamide] gave an EC50 of 1510 nM.

For the compound `CNC(=O)c1cc(C)c(N2CCC(Oc3ccc(OC)nc3)CC2)nc1C` [Example 189, 6-{4-[(6-methoxypyridin-3-yl)oxy]piperidin-1-yl}-N,2,5-trimethylpyridine-3-carboxamide], the midpoint of the response, the EC50, lay at 1870 nM. This EC50 and that of the compound before are within 1.5-fold of each other.

In turn, `COc1ccc(OC2CCN(c3nnc(C(=O)Nc4ccc(CC(F)(F)F)cc4)cc3C)CC2)cn1` [Example 190, 6-{4-[(6-methoxypyridin-3-yl)oxy]piperidin-1-yl}-5-methyl-N-[4-(2,2,2-trifluoroethyl)phenyl]pyridazine-3-carboxamide] registered an EC50 of 2000 nM.

In the case of `COc1ccc(OC2CCN(c3nc(C)c(C(N)=O)cc3C)CC2)cn1` [Example 191, 6-{4-[(6-methoxypyridin-3-yl)oxy]piperidin-1-yl}-2,5-dimethypyridine-3-carboxamide], the half-maximal effective concentration (EC50) was determined as 2960 nM.

Compound `Cc1cc(C(=O)NCc2cnsc2)nnc1N1CCC(Oc2cccc(C#N)c2)CC1` [Example 192, 6-[4-(3-cyanophenoxy)piperidin-1-yl]-N-(isothiazol-4-ylmethyl)-5-methypyridazine-3-carboxamide] displayed an EC50 of 22 nM.

`COc1ccc(OC2CCN(c3nnc(C(=O)NCc4ccccc4)cc3C)CC2)cn1` [Example 193, N-benzyl-6-{4-[(6-methoxypyridin-3-yl)oxy]piperidin-1-yl}-5-methylpyridazine-3-carboxamide] showed a concentration for a half-maximal effect (EC50) of 35 nM.

`Cc1cc(C(=O)NCc2ccccc2)nnc1N1CCC(Oc2cccc(C#N)c2)CC1` [Example 194, N-benzyl-6-[4-(3-cyanophenoxy)piperidin-1-yl]-5-methylpyridazine-3-carboxamide]: the half-maximal effective concentration (EC50) turned out to be 51 nM.

In turn, `COc1ccc(OC2CCN(c3nnc(C(=O)NCc4ccccc4Cl)cc3C)CC2)cn1` [Example 195, N-(2-chlorobenzyl)-6-{4-[(6-methoxypyridin-3-yl)oxy]piperidin-1-yl}-5-methylpyridazine-3-carboxamide] yielded a concentration for a half-maximal effect (EC50) of 57 nM. The EC50 values of the last two compounds are within 1.5-fold of each other.

On to `COc1ccc(OC2CCN(c3nnc(C(=O)NCCc4ccccc4)cc3C)CC2)cn1` [Example 196, 6-{4-[(6-methoxypyridin-3-yl)oxy]piperidin-1-yl}-5-methyl-N-(2-phenylethyl)pyridazine-3-carboxamide], for which a half-maximal effect (EC50) was put at 74 nM.

`COc1ccc(OC2CCN(c3nnc(C(=O)NCCc4ccccc4Cl)cc3C)CC2)cn1` [Example 197, N-[2-(2-chlorophenyl)ethyl]-6-{4-[(6-methoxypyridin-3-yl)oxy]piperidin-1-yl}-5-methylpyridazine-3-carboxamide]: the half-maximal effective concentration (EC50) was determined as 91 nM.

Regarding `Cc1cc(C(=O)NCc2ccccc2Cl)nnc1N1CCC(Oc2cccc(C#N)c2)CC1` [Example 199, N-(2-chlorobenzyl)-6-[4-(3-cyanophenoxy)piperidin-1-yl]-5-methylpyridazine-3-carboxamide], the EC50 was 118 nM. The EC50 values of the last two compounds are within 1.5-fold of each other.

`COc1ccc(OC2CCN(c3nnc(C(=O)NC4CCCc5ccccc54)cc3C)CC2)cn1` (stereo not drawn) [Example 200, 6-{4-[(6-methoxypyridin-3-yl)oxy]piperidin-1-yl}-5-methyl-N-(1,2,3,4-tetrahydronaphthalen-1-yl)pyridazine-3-carboxamide] returned a concentration giving a half-maximal response (EC50) of 218 nM.

For the origin of these results see patent US11319298B2 (Merck Sharp & Dohme Corp., priority 2016, dated 2022).
